The values that follow come from ChEMBL document CHEMBL1201862, “PubChem BioAssay data set” (2004).

Molecules are shown by their SMILES. Activity calls are given as the source filed them.

The target in assay [1] is Sphingosine 1-phosphate receptor 4 (Homo sapiens, UniProt O95977). Description: S1P4 receptor agonists, human, late-stage follow-up, cell-based, fluorescence, synthesized compounds (AID 463107). It counts as functional.
The target of assay [2] is CAAX prenyl protease 2 (Saccharomyces cerevisiae S288c, UniProt Q03530). The class given is biochemical.
Assay [3] has as its target CAAX prenyl protease 2 (Homo sapiens, UniProt Q9Y256). Description: human Rce1 protease inhibitors, dose response, biochemical, yeast membranes, quenched-peptide fluorescence, cherry-pick (AID 588849).
For assay [4], the target named is T1, Tyrosine-protein phosphatase non-receptor type 7 (Homo sapiens, UniProt P35236).
T1 sequence (P35236 whole entry): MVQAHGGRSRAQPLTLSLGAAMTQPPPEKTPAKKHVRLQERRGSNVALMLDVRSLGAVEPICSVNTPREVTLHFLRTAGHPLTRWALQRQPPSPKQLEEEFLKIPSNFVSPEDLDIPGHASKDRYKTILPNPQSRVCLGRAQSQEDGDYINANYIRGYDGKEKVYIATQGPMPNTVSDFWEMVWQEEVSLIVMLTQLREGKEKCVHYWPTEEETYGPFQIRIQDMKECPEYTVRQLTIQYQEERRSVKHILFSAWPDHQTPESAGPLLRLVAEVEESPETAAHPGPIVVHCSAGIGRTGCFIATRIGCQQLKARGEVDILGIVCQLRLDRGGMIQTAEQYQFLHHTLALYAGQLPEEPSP
The class given is functional.

For assay [5], the target named is Glyceraldehyde-3-phosphate dehydrogenase (Homo sapiens, UniProt P04406).
The target of assay [6] is T2, Dual specificity protein phosphatase 6 (Rattus norvegicus, UniProt Q64346).
T2 sequence (Q64346 whole entry): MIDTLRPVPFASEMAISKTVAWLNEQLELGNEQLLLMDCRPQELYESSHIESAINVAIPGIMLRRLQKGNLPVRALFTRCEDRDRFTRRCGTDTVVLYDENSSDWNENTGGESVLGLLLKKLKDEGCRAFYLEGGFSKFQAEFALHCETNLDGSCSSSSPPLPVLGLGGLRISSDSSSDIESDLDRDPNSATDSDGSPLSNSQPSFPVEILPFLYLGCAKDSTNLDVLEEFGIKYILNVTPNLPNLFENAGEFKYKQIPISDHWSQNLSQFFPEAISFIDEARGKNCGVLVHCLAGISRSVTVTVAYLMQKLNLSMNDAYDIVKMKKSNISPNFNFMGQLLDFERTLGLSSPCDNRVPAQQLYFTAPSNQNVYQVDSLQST

Assay [7] concerns the target T3, Dual specificity protein phosphatase 3 (Homo sapiens, UniProt P51452). In words: SAR VHR1 Fluorescent Assay for In Vitro dose response studies. [Related pubchem assays (depositor defined):AID1654, AID1661, AID1878, AID1992, AID2004, AID2070, AID2085]. It counts as functional.
The target in assay [8] is T3, Dual specificity protein phosphatase 3. In words: MOA VHR1 Fluorescent secondary assay for identification of redox-state modulating compounds. [Related pubchem assays (depositor defined):AID1654, AID1661, AID1878, AID1957].
The target of assay [9] is T1, Tyrosine-protein phosphatase non-receptor type 7. Description: redox-dependent HePTP inhibition, mechanism study, biochemical, fluorescence (AID 2068). It counts as functional.
For assay [10], the target named is T2, Dual specificity protein phosphatase 6. The class given is functional.
A short description of assay [11]: cells. It counts as functional, cell-based.
Assay [12] is described as follows: inhibitors of intracellular T. cruzi replication, confirmation, NIH3T3 host cells, beta-gal luminescence (AID 2044).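 Also: intracellular parasites grown in NIH/3T3 mouse fibroblasts as host cells; luminescent beta-galactosidase reporter signal from transgenic T. cruzi replicating inside host cells; inhibitors lower the luminescence signal.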 The class given is functional, cell-based.
Assay [13] is described as follows: cells. It counts as functional, cell-based. This is another data set of the same source.
The target of assay [14] is T4, Kappa-type opioid receptor (Homo sapiens, UniProt P41145). It counts as functional.
A short description of assay [15]: cytotoxicity toward NIH3T3 fibroblasts, dose response, counter-screen, cell-based, ATP luminescence, mouse fibroblasts (AID 2010).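 Also: cells exposed to compound for about 90 hours before reading.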 It counts as functional.
Assay [16] addresses Beta-galactosidase (Escherichia coli, UniProt Q8VNN2). It counts as functional.
Assay [17] deals with T4, Kappa-type opioid receptor. The class given is functional. The source holds these as a separate data set.
In assay [18] the target is T5, Microphthalmia-associated transcription factor (Homo sapiens, UniProt O75030).
T5 sequence (O75030 whole entry): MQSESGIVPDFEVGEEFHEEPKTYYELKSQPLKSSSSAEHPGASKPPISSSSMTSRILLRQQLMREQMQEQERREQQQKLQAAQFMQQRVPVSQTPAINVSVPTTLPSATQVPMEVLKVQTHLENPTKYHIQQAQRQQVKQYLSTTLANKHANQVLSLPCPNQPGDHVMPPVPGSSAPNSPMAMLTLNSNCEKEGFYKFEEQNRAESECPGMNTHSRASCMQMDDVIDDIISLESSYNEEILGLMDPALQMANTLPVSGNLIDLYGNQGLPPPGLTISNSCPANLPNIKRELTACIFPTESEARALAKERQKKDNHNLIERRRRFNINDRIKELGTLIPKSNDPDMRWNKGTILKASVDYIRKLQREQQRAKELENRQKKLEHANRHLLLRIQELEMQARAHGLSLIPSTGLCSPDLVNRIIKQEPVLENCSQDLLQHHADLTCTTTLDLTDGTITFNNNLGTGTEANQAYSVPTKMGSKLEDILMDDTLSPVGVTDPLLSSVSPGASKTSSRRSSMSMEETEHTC
In words: TRPM1 promoter luciferase signal decrease, dose response, MITF inhibitor project, cell-based, SK-MEL-5, cherry-picked, set 3 (AID 493073).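 Also: SK-MEL-5 melanoma cells with luciferase driven by the MITF target TRPM1 promoter.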 The class given is functional.

In assay [19] the test system is INS1. In words: beta cell apoptosis inhibitors, cytokine rescue, dose response, luminescence, retest (AID 449756).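 Also: cell death triggered by IL-1 beta plus TNF-alpha plus IFN-gamma mixture; protective hits raise ATP signal compared with cytokine alone wells.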 To be noted: Rattus norvegicus. It counts as functional, cell-based.
The subject of assay [20] is Vero. In words: cells. It counts as functional. As to conditions: Chlorocebus sabaeus.

T4 sequence (P41145 whole entry): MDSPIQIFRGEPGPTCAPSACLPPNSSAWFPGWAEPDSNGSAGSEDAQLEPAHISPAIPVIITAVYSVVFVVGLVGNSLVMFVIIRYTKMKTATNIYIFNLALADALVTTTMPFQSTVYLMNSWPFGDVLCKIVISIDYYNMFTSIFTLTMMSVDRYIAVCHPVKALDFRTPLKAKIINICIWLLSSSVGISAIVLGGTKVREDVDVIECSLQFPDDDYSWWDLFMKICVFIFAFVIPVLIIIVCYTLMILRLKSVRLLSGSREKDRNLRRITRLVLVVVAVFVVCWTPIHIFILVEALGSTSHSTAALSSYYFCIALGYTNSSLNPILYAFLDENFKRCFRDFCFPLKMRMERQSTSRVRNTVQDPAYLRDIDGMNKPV
T3 sequence (P51452 whole entry): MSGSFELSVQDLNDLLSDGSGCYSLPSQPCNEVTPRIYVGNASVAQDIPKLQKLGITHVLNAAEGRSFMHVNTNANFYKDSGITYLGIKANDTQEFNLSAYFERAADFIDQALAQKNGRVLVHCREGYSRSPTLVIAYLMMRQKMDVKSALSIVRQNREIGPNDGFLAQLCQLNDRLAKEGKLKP
Beta-galactosidase, sequence (Q8VNN2 whole entry): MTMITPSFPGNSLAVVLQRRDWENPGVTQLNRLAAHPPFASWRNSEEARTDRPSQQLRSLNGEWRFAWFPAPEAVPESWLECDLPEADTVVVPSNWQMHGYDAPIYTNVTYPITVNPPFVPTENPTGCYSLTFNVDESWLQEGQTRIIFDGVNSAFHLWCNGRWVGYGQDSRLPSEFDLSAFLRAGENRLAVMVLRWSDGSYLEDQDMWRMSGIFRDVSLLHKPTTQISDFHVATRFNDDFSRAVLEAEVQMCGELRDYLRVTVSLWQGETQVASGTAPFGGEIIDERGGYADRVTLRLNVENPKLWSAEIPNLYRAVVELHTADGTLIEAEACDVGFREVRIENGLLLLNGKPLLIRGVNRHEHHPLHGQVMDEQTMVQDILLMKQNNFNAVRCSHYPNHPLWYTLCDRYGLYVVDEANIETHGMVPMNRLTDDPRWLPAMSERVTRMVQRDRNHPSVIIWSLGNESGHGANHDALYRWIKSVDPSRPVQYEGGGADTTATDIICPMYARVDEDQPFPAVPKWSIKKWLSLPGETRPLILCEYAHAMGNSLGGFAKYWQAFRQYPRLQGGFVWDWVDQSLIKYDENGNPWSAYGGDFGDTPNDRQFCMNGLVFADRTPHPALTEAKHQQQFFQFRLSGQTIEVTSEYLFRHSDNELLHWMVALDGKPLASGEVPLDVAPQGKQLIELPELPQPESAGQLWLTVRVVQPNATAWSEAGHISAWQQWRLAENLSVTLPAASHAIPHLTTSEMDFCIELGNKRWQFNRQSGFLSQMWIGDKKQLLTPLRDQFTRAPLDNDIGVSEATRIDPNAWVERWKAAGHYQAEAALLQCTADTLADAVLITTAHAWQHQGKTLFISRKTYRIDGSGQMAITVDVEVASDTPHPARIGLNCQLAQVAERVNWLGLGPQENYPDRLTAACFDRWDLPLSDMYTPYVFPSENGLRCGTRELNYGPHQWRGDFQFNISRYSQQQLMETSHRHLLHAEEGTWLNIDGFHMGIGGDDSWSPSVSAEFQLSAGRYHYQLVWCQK
CAAX prenyl protease 2 (Homo sapiens, UniProt Q9Y256), sequence (Q9Y256 whole entry): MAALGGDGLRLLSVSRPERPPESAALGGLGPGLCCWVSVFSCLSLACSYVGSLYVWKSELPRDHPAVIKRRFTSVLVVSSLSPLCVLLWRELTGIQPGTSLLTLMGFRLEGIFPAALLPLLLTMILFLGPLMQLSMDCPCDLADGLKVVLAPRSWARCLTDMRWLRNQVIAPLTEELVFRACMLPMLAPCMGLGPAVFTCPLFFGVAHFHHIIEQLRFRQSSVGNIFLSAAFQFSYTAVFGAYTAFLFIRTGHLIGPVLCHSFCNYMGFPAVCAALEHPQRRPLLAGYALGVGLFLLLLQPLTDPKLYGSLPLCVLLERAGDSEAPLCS
Sphingosine 1-phosphate receptor 4, sequence (O95977 whole entry): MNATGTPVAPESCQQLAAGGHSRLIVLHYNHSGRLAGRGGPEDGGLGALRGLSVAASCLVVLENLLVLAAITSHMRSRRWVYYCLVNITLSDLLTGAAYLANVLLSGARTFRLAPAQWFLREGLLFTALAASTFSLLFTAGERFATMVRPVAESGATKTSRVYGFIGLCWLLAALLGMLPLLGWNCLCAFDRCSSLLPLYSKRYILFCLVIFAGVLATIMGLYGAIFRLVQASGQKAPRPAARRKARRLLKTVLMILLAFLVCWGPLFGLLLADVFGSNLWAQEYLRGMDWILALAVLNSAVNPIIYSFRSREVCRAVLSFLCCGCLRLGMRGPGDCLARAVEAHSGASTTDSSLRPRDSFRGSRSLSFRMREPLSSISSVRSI
CAAX prenyl protease 2 (Saccharomyces cerevisiae S288c, UniProt Q03530), sequence (Q03530 whole entry): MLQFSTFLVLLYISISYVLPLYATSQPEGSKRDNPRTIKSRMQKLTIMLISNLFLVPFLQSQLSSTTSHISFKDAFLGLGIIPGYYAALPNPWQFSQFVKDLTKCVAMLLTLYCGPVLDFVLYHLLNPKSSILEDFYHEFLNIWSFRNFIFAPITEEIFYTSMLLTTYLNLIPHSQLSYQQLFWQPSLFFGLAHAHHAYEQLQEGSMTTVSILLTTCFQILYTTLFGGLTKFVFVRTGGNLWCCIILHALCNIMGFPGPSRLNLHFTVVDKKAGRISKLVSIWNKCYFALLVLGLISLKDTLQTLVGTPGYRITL
Glyceraldehyde-3-phosphate dehydrogenase, sequence (P04406 whole entry): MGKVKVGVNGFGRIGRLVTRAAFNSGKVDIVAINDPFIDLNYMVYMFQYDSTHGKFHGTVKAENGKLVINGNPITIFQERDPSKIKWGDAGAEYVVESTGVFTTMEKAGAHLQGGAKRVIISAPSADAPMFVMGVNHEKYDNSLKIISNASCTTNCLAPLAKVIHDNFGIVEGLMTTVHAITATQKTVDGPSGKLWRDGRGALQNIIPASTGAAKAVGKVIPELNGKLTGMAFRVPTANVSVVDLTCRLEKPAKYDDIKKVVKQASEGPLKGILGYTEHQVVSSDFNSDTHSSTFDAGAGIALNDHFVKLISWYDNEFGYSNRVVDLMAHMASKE

In the case of `Cc1ccc(OCCOc2ccc(C)nc2[N+](=O)[O-])c([N+](=O)[O-])n1`, in [1], the EC50 is > 50 µM (inactive).
Take `Cc1cc(C)nc(SCc2cn3c(C)cc(C)nc3n2)n1`: the values for the AC50 in assay [2] and in assay [3] were 35.7 µM (active) and 35.2 µM (active), respectively.
As to `O=c1/c(=C/c2ccc(-c3ccccc3[N+](=O)[O-])o2)sc2nc3cc(Br)cnc3n12`, the IC50 in assay [4] is 43.9 µM (active); in assay [5], > 100 µM (not active); in assay [6], 49 µM (active); in assay [7], 12.1 µM (active); in assay [8], 5.53 µM (active); in assay [9] it was 4.13 µM (active). Also, the IC50 in [10] is 55.5 µM (active).
Regarding `C/C(=N\NC(=O)Cc1ccc(Cl)cc1)c1ccccn1`, the EC50 in assay [11] was 54.9 µM (active); in assay [12], 0.635 µM (active); in assay [13], 57.6 µM (active); in [15], < 6 µM (inconclusive); in assay [16], > 31.5 µM (inactive). Also, the figures for the IC50 in [14] and in [17] were 5.02 µM (active) and greater than 32 µM, respectively. The AC50 in assay [18] was 4.22 µM (active); in assay [19], 1.05 µM (active). Besides, the CC50 in [20] was 2.29 µM (active).
